Results on 1 substance are retold here after patent US4473544A, “Radio-iodine-labelled omega phenyl fatty acids” (priority 1979, dated 1984).

Data set [1] in a line: Renal excretion and extracellular distribution of beta-oxidation degradation products. The format is in vivo. To be noted: products of beta-oxidation of radio-iodine-labelled phenyl fatty acids. The text has this: We have now discovered radio-iodine-labelled omega-phenyl fatty acids, particularly p-I123 -omega-phenyl pentadecanoic acid and its use, to image body organs such as the heart and liver. Through the use of these novel agents, the disadvantages associated with the use of omega-iodine fatty acids, e.g., injecting radioactive iodide as an internal standard and making the necessary corrections, can be completely avoided.
On degradation via beta-oxidation of the iodinated phenyl fatty acid of the invention, the radioactive residue produced is not iodide, but rather iodinated benzoic or iodinated phenylacetic acid. […] Tests in mice have proven that the residual activity in the blood is 2% of the injected dose per gram of blood.

The conditions of data set [2]: stated as known; cited from earlier work.

With iodophenylacetic acid, in data set [1], the “distribution throughout the extracellular fluid” value is listed as “does not occur”; the “excretion by the kidneys” value is “rapidly and quantitatively excreted by the kidneys”. For the same substance, the “excretion from the body via the kidneys” value in data set [2] is “rapidly excreted from the body via the kidneys”.
